Reference: patent US20240124444A1 (Celgene Corporation, priority 2020, published 2024)

Test system: C. parvum strain UGA1
Assay: C. parvum growth inhibition assay (Nluc luminescence in HCT-8 cells)
Assay type: cell-based, Cryptosporidium parvum
Conditions: Cryptosporidium parvum, HCT-8; for inhibition at 1 µM: single point inhibition @ 1 uM, read-out: % inh @ 1 uM C. parvum; for inhibition at 10 µM: single point inhibition @ 10 uM, read-out: % inh @ 10 uM C. parvum

| Compound | inhibition at 1 µM [%] | inhibition at 10 µM [%] |
| --- | --- | --- |
| CC(C)n1cc(C(=O)Nc2cc3[nH]c(-c4ccnc(OCCF)n4)cc3cn2)cn1 [Example 146, N-(2-(2-(2-fluoroethoxy)pyrimidin-4-yl)-1H-pyrrolo[3,2-c]pyridin-6-yl)-1-isopropyl-1H-pyrazole-4-carboxamide] | 0 to 33 | 67 to 100 |
| c1ncc(-c2cc3cnc(Nc4cnn(C5CCOCC5)c4)cc3[nH]2)o1 [Example 147, 2-(oxazol-5-yl)-N-(1-(tetrahydro-2H-pyran-4-yl)-1H-pyrazol-4-yl)-1H-pyrrolo[3,2-c]pyridin-6-amine] | 0 to 33 | 67 to 100 |
| COc1cc(Nc2cc3[nH]c(C#N)cc3cn2)cc(C2CCOCC2)c1 [Example 148, 6-(3-methoxy-5-(tetrahydro-2H-pyran-4-yl)phenylamino)-1H-pyrrolo[3,2-c]pyridine-2-carbonitrile] | 0 to 33 | 67 to 100 |
| CC(C)n1cc(C(=O)Nc2cc3[nH]c(-c4ccnc(OC(C)C(F)(F)F)n4)cc3cn2)cn1 (stereo not drawn) [Example 149, 1-isopropyl-N-(2-(2-(1,1,1-trifluoropropan-2-yloxy)pyrimidin-4-yl)-1H-pyrrolo[3,2-c]pyridin-6-yl)-1H-pyrazole-4-carboxamide] | 0 to 33 | 67 to 100 |
| Cc1cc(-c2cc3cnc(Nc4cccc(-c5nc[nH]n5)c4)cc3[nH]2)cc(N)n1 [Example 150, N-(3-(1H-1,2,4-triazol-3-yl)phenyl)-2-(2-amino-6-methylpyridin-4-yl)-1H-pyrrolo[3,2-c]pyridin-6-amine] | 0 to 33 | 67 to 100 |
| N#Cc1cc2cnc(Nc3cnn(C4CCOCC4)c3)cc2[nH]1 [Example 151, 6-(1-(tetrahydro-2H-pyran-4-yl)-1H-pyrazol-4-ylamino)-1H-pyrrolo[3,2-c]pyridine-2-carbonitrile] | 0 to 33 | 67 to 100 |
| O=C(Nc1cc2[nH]c(-c3ccncc3)cc2cn1)c1cnn(C2CCOCC2)c1 [Example 154, N-(2-(pyridin-4-yl)-1H-pyrrolo[3,2-c]pyridin-6-yl)-1-(tetrahydro-2H-pyran-4-yl)-1H-pyrazole-4-carboxamide] | 0 to 33 | 67 to 100 |
| Cc1cc(-c2cc3cnc(NC(=O)C4CCCOC4)cc3[nH]2)ccn1 (stereo not drawn) [Example 155, N-(2-(2-methylpyridin-4-yl)-1H-pyrrolo[3,2-c]pyridin-6-yl)tetrahydro-2H-pyran-3-carboxamide] | 0 to 33 | 67 to 100 |
| CCOc1nccc(-c2cc3cnc(NC(=O)C4C5CCCCC54)cc3[nH]2)n1 (stereo not drawn) [Example 158, N-(2-(2-ethoxypyrimidin-4-yl)-1H-pyrrolo[3,2-c]pyridin-6-yl)bicyclo[4.1.0]heptane-7-carboxamide] | 0 to 33 | 67 to 100 |
| Cn1cc(C(=O)Nc2cc3c(cn2)cc(-c2ccnc(NCC4CC4)n2)n3C)cn1 [Example 159, N-(2-(2-(cyclopropylmethylamino)pyrimidin-4-yl)-1-methyl-1H-pyrrolo[3,2-c]pyridin-6-yl)-1-methyl-1H-pyrazole-4-carboxamide] | 0 to 33 | 67 to 100 |
| Cc1cc(-c2cc3cnc(NC(=O)C(C)C)cc3[nH]2)ccn1 [Example 160, N-(2-(2-methylpyridin-4-yl)-1H-pyrrolo[3,2-c]pyridin-6-yl)isobutyramide] | 0 to 33 | 67 to 100 |
| CO[C@H]1C[C@H](C(=O)Nc2cc3[nH]c(-c4ccnc(C)c4)cc3cn2)C1 [Example 161, (1r,3r)-3-methoxy-N-(2-(2-methylpyridin-4-yl)-1H-pyrrolo[3,2-c]pyridin-6-yl)cyclobutanecarboxamide] | 0 to 33 | 67 to 100 |
| CC(C)n1cc(C(=O)Nc2cc3[nH]c(-c4ccncc4)cc3cn2)cn1 [Example 162, 1-isopropyl-N-(2-(pyridin-4-yl)-1H-pyrrolo[3,2-c]pyridin-6-yl)-1H-pyrazole-4-carboxamide] | 0 to 33 | 67 to 100 |
| COc1nccc(-c2cc3cnc(NC(=O)[C@H]4C[C@@H](O)C4)cc3n2C)n1 [Example 163, (1s,3s)-3-hydroxy-N-(2-(2-methoxypyrimidin-4-yl)-1-methyl-1H-pyrrolo[3,2-c]pyridin-6-yl)cyclobutanecarboxamide] | 0 to 33 | 67 to 100 |
| Cn1cc(Nc2cc3[nH]c(C#N)cc3cn2)cn1 [Example 164, 6-(1-methyl-1H-pyrazol-4-ylamino)-1H-pyrrolo[3,2-c]pyridine-2-carbonitrile] | 0 to 33 | 67 to 100 |
| Cc1cc(-c2cc3cnc(NC(=O)CC4COC4)cc3[nH]2)ccn1 [Example 165, N-(2-(2-methylpyridin-4-yl)-1H-pyrrolo[3,2-c]pyridin-6-yl)-2-(oxetan-3-yl)acetamide] | 0 to 33 | 67 to 100 |
| Cc1c(C(=O)Nc2cc3[nH]c(-c4ccncc4)cc3cn2)cnn1C [Example 166, 1,5-dimethyl-N-(2-(pyridin-4-yl)-1H-pyrrolo[3,2-c]pyridin-6-yl)-1H-pyrazole-4-carboxamide] | 0 to 33 | 67 to 100 |

| Compound | inhibition at 1 µM [%] | inhibition at 10 µM [%] |
| --- | --- | --- |
| COc1nccc(-c2cc3cnc(NC(=O)[C@H]4C[C@@H](O)C4)cc3[nH]2)n1 [Example 167, (1s,3s)-3-hydroxy-N-(2-(2-methoxypyrimidin-4-yl)-1H-pyrrolo[3,2-c]pyridin-6-yl)cyclobutanecarboxamide] | 33 to 66 | 67 to 100 |
| Cc1cc(Nc2cc3[nH]c(-c4ccncc4)cc3cn2)nn1C(C)C [Example 168, N-(1-isopropyl-5-methyl-1H-pyrazol-3-yl)-2-(pyridin-4-yl)-1H-pyrrolo[3,2-c]pyridin-6-amine] | 33 to 66 | 67 to 100 |
| CC(C)n1cc(C(=O)Nc2cc3c(cn2)cc(-c2ccnc(NCC(F)F)n2)n3C)cn1 [Example 169, N-(2-(2-(2,2-difluoroethylamino)pyrimidin-4-yl)-1-methyl-1H-pyrrolo[3,2-c]pyridin-6-yl)-1-isopropyl-1H-pyrazole-4-carboxamide] | 0 to 33 | 67 to 100 |
| Cc1cc(-c2cc3cnc(NC(=O)OC4CCCC4)cc3[nH]2)ccn1 [Example 170, cyclopentyl 2-(2-methylpyridin-4-yl)-1H-pyrrolo[3,2-c]pyridin-6-ylcarbamate] | 0 to 33 | 67 to 100 |
| CC(C)n1cc(C(=O)Nc2cc3[nH]c(-c4ccnc(NCC(F)(F)F)n4)cc3cn2)cn1 [Example 172, 1-isopropyl-N-(2-(2-(2,2,2-trifluoroethylamino)pyrimidin-4-yl)-1H-pyrrolo[3,2-c]pyridin-6-yl)-1H-pyrazole-4-carboxamide] | 67 to 100 | 67 to 100 |
| CC(C)n1cc(C(=O)Nc2cc3[nH]c(-c4ccnc(OCC(F)F)n4)cc3cn2)cn1 [Example 173, N-(2-(2-(2,2-difluoroethoxy)pyrimidin-4-yl)-1H-pyrrolo[3,2-c]pyridin-6-yl)-1-isopropyl-1H-pyrazole-4-carboxamide] | 0 to 33 | 67 to 100 |
| COC(=O)Nc1cc2[nH]c(-c3ccnc(C)c3)cc2cn1 [Example 174, methyl 2-(2-methylpyridin-4-yl)-1H-pyrrolo[3,2-c]pyridin-6-ylcarbamate] | 0 to 33 | 67 to 100 |
| CC(C)n1cc(C(=O)Nc2cc3[nH]c(-c4ccnc(OCCC(F)(F)F)n4)cc3cn2)cn1 [Example 175, 1-isopropyl-N-(2-(2-(3,3,3-trifluoropropoxy)pyrimidin-4-yl)-1H-pyrrolo[3,2-c]pyridin-6-yl)-1H-pyrazole-4-carboxamide] | 0 to 33 | 67 to 100 |
| COc1nccc(-c2cc3cnc(NC(=O)C4C5CCCC54)cc3[nH]2)n1 (stereo not drawn) [Example 176, N-(2-(2-methoxypyrimidin-4-yl)-1H-pyrrolo[3,2-c]pyridin-6-yl)bicyclo[3.1.0]hexane-6-carboxamide] | 0 to 33 | 67 to 100 |
| COc1nccc(-c2cc3cnc(NC(=O)c4cnn(C(C)C)c4)cc3[nH]2)n1 [Example 177, 1-isopropyl-N-(2-(2-methoxypyrimidin-4-yl)-1H-pyrrolo[3,2-c]pyridin-6-yl)-1H-pyrazole-4-carboxmaide] | 0 to 33 | 67 to 100 |
| CC(C)n1cc(C(=O)Nc2cc3c(cn2)cc(-c2ccnc(NCCC(F)(F)F)n2)n3C)cn1 [Example 178, 1-isopropyl-N-(1-methyl-2-(2-(3,3,3-trifluoropropylamino)pyrimidin-4-yl)-1H-pyrrolo[3,2-c]pyridin-6-yl)-1H-pyrazole-4-carboxamide] | 0 to 33 | 67 to 100 |
| N#Cc1cc2cnc(NC(=O)C3CC3)cc2[nH]1 [Example 180, N-(2-cyano-1H-pyrrolo[3,2-c]pyridin-6-yl)cyclopropanecarboxamide] | 0 to 33 | 67 to 100 |
| CC(=O)Nc1cc2[nH]c(-c3ccncc3)cc2cn1 [Example 181, N-(2-(pyridin-4-yl)-1H-pyrrolo[3,2-c]pyridin-6-yl)acetamide] | 0 to 33 | 67 to 100 |
| COc1nccc(-c2cc3cnc(NC(=O)c4cnn(C5CCCC5)c4)cc3[nH]2)n1 [Example 183, 1-cyclopentyl-N-(2-(2-methoxypyrimidin-4-yl)-1H-pyrrolo[3,2-c]pyridin-6-yl)-1H-pyrazole-4-carboxamide] | 0 to 33 | 67 to 100 |
| Cc1nccc(-c2cc3cnc(NC(=O)c4cnn(C)c4)cc3[nH]2)n1 [Example 185, 1-methyl-N-(2-(2-methylpyrimidin-4-yl)-1H-pyrrolo[3,2-c]pyridin-6-yl)-1H-pyrazole-4-carboxamide] | 0 to 33 | 67 to 100 |
| CC(C)n1cc(C(=O)Nc2cc3[nH]c(-c4ccnc(OCC(F)(F)F)n4)cc3cn2)cn1 [Example 186, 1-isopropyl-N-(2-(2-(2,2,2-trifluoroethoxy)pyrimidin-4-yl)-1H-pyrrolo[3,2-c]pyridin-6-yl)-1H-pyrazole-4-carboxamide] | 0 to 33 | 67 to 100 |
